Test results reported in patent US4985447A, “Certain benzoquinones, naphthoquinones and derivatives thereof which exhibit thromboxane A2 synthetase inhibition or receptor antagonism and the like” (Takeda Chemical Industries, Ltd., priority 1986, dated 1991).

Legend:
5-lipoxygenase = molecular target: T1, 5-lipoxygenase (Rattus norvegicus, UniProt P12527); test: Inhibition of 5-lipoxygenase (production of 5-HETE in RBL-1 cells); type: cell-based, rat (RBL-1, rat basophilic leukemia cells); settings: for inhibition at 1 µM: 10^-6 M; for inhibition at 0.1 µM: 10^-7 M
T1 construct: endogenous in cells; host or cells: RBL-1 cells (rat basophilic leukemia)
T1 sequence (P12527 1-673): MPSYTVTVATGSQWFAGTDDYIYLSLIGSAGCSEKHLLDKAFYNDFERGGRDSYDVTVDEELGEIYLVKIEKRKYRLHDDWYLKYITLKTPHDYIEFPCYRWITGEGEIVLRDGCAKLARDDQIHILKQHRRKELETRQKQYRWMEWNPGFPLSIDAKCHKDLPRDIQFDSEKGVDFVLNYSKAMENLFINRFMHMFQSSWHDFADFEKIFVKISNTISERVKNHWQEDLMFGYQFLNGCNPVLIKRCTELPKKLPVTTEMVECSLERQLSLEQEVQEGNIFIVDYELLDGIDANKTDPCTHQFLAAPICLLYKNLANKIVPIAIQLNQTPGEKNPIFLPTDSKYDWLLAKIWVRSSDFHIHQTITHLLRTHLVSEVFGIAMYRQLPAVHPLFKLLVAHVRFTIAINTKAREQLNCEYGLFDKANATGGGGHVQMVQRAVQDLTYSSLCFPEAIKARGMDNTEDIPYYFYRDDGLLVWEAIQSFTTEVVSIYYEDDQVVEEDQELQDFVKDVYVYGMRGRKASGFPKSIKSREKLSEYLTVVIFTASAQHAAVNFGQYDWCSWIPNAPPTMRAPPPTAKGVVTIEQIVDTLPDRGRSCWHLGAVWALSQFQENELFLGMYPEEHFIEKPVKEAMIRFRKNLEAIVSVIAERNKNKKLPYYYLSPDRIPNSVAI
Method: Inhibition of 5-lipoxygenase
10^7 RBL-1 cells (rat basophilic leukemia cells) were suspended in 0.5 ml of MCM (mast cell medium ). To the suspension was subsequently added a solution consisting of 0.5 ml of MCM, 50 μg of arachidonic acid, 10 μg of A-23187 (calcium ionophore, Eli Lilly), and a solution of a quinone compound in ethanol at the final concentration of 1 μM, 0.1 μM, 0.01 μM or 0.001 μM of the test compound was added and allowed to react at 37° C. for 20 minutes. After the reaction, 4 ml of ethanol containing 1,4-dimethoxy-2-methyl-3-(3-methoxypropyl)naphthalene as an internal standard were added, mixed well by shaking, and kept at room temperature for 10 minutes. Then the mixture was centrifuged for 10 minutes (2000 rpm), and the supernatant was separated. The supernatant was concentrated to dryness under reduced pressure. To the concentrate, 0.5 ml of 60% aqueous methanol was added. One hundred μl of this solution was subjected to high performance liquid chromatography for quantitative analysis of 5-HETE (5-hydroxyeicosatetraenoic acid). The amount of 5-HETE was analyzed by measurement of the absorbance at […] with a UV absorption monitor.
Inhibitory effect (IE) of production of 5-HETE is expressed by (1-b/a)×100, wherein a is the peak height or the area corrected with the peak due to the internal standard in the absence of the quinone compound, and b is the peak hight or peak area corrected with the peak due to the internal standard in the presence of the quinone compound.

[1] = Effect on occurrence of ventricular arrhythmia due to ischemia-reperfusion in rat; type: in vivo, rat (Sprague-Dawley); settings: 30 mg/kg, p.o., rats showing abnormal function/rats used, during 10 minutes of reperfusion; for Incidence of ventricular fibrillation: **p<0.01 (X^2 test); for Incidence of cardiac arrest / Incidence of ventricular tachycardia: *p<0.05 (X^2 test)
Method: Procedure: The experiment was carried out in Sprague-Dawley rat (male, 11-12 weeks old) according to the method of A. S. Manning (Circ. Res. 55, 545, 1984). A rat was given orally a drug or water at the dose of 5 ml/kg, and anesthetized 1 hour later with pentobarbital (50 mg/kg, intraperitoneal injection). The rat was thoractomized under artificial respiration and the coronary left anterior descending artery was ligated for 5 minutes, followed by reperfusion for 10 minutes. The incidences of ventricular tachycardia, ventricular fibrillation and cardiac arrest observed for the 10 minutes of reperfusion were determined.

[2] = Effect on cerebral ischemic seizure in spontaneously hypertensive rat; type: in vivo; settings: orally at 30 mg/kg
Method: Procedure: A spontaneously hypertensive rat (male, 20-23 weeks old) was given orally a compound or water at the dose of 5 ml/kg, and 1 hour later anesthetized with pentobarbital. Bilateral common carotid arteries were ligated, and the interval from immediately after the ligation to the occurrence of seizure (cramp, jumping, etc.) was measured.

[3] = molecular target: T2, Thromboxane A2 (TXA2) receptor (Oryctolagus cuniculus, UniProt Q6WQI8); test: Thromboxane A2 (TXA2) receptor antagonism (rabbit aorta strip contraction by U-46619); settings: for Inhibition of contraction of rabbit aorta strip due to U-46619: U-46619 10^-7 M, mean ± standard error, 6 cases
T2 construct: contraction by U-46619
T2 sequence (Q6WQI8 1-233): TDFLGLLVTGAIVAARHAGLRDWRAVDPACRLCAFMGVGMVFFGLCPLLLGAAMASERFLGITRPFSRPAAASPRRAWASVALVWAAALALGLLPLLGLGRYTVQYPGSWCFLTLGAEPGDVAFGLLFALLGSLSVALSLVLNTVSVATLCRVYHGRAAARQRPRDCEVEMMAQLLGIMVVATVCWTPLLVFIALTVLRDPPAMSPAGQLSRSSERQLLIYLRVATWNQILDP
Method: Thromboxane A2 (TXA2) receptor antagonism
Procedure: A spiral strip of the rabbit aorta (2-3 mm wide, about 3 cm long) was suspended in Krebs-Henseleit solution under the load of 2 g. The Krebs-Henseleit solution was saturated with a mixed gas of 95% O2 -5% CO2 and warmed at 37° C. Inhibition of the contraction of the vascular strip caused by a TXA2 mimic substance, U-46619* (10^-7 M), by pretreatment with Compound No.13 30 minutes before was studied.

Row | Compound | inhibition at 1 µM (5-lipoxygenase) [%] | inhibition at 0.1 µM (5-lipoxygenase) [%] | Incidence of ventricular fibrillation [1] | Incidence of ventricular fibrillation ([1]; listed as Compound No.1) | Incidence of cardiac arrest [1] | Incidence of ventricular tachycardia [1] | Incidence of cardiac arrest ([1]; listed as Compound No.1) | Incidence of ventricular tachycardia ([1]; listed as Compound No.1) | Interval to the occurrence of cerebral ischemic seizure (in words) [2] | protective effect against cerebral ischemia (in words) [2] | Inhibition of contraction of rabbit aorta strip due to U-46619 ([3]; 10^-5 M) [%] | Inhibition of contraction of rabbit aorta strip due to U-46619 ([3]; 10^-5 M, listed as Compound No.13) [%] | TXA2 receptor antagonism (in words) ([3]; 10^-6 M and 10^-5 M) | Inhibition of contraction of rabbit aorta strip due to U-46619 ([3]; 10^-6 M) [%] | Inhibition of contraction of rabbit aorta strip due to U-46619 ([3]; 10^-6 M, listed as Compound No.13) [%]
1 | CC1=C(C)C(=O)C(C(C)c2cccnc2)=C(C)C1=O (centres unmarked) [Compound No. 1, 3,5,6-trimethyl-2-[1-(3-pyridyl)ethyl]-1,4-benzoquinone] | 84 | 46 | 3/8 | inhibited significantly | 1/8 | 6/8 | inhibited significantly | inhibited significantly | prolonged remarkably the interval to the occurrence of cerebral ischemic seizure | exerts protective effects against cerebral ischemia |  |  |  |  | 
2 | CC1=C(C)C(=O)C(C(CCCCCC(=O)O)c2cccnc2)=C(C)C1=O (centres unmarked) [Compound No. 13, 7-(3-pyridyl)-7-(3,5,6-trimethyl-1,4-benzoquinon-2-yl)heptanoic acid] | 64 | 16 |  |  |  |  |  |  |  |  | 86 ± 8 | 86 | remarkable TXA2 receptor antagonism | 14 ± 4 | 14
